Experimental data as given in US10329315B2, “Glycosphingolipids and methods of use thereof” (The Brigham and Women's Hospital, Inc., priority 2012, dated 2019).

Test system: iNKT hybridoma 24.7
Test: iNKT cell activation in co-culture of BMDCs and iNKT hybridoma 24.7, IL-2 by ELISA
Type: cell-based
Conditions: incubated with BMDCs 4 hours, then iNKT hybridoma 24.7 for 24 hours
Method: Experiments were performed to determine whether fractions of B. fragilis sphingolipids are immunostimulatory (agonists) to iNKT cells. Lipid fractions were extracted from BF membranes, incubated with bone marrow dendritic cells (BMDCs) for 4 hours, and then co-incubated with iNKT hybridoma 24.7 for 24 hours. IL-2 was measured by ELISA as a readout of iNKT cell activation. KRN7000 refers to the known immunostimulatory alpha-GC. Cer-SL refers to the ceramide sphingolipid fraction. PE-SL refers to the phosphoethanolamine sphingolipid fraction. GL-SL refers to the glycosphingolipid fraction. C17 minor refers to alpha-GC having a C17 ceramide chain length. […] As expected, KRN7000 was stimulatory.
Further studies confirmed that alpha-GC-Bf717 was detectable only in fecal samples from BFWT mice and not in samples from BFΔSPT mice. The estimated yield of alpha-GC-Bf717 was about 1 ng per gram of fecal pellet. To confirm that alpha-GC-Bf717 had antagonistic activity, co-cultures similar to those described above for bulk GL-SL fractions were performed.

CCCCCCCCCCCCCCCCCCCCCCCCCC(=O)N[C@@H](CO[C@H]1O[C@H](CO)[C@H](O)[C@H](O)[C@H]1O)[C@H](O)[C@H](O)CCCCCCCCCCCCCC [KRN7000]
iNKT cell activation (IL-2): stimulatory
